Measurements as given in PubChem BioAssay (NCI).
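Method: 48-hour compound exposure of cells in 96-well plates, five concentrations, linear interpolation of endpoints. GI50: concentration for 50% inhibition of growth. TGI: concentration producing complete growth inhibition.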

Legend:
Assay in all cases: NCI-60 cell line screen, 48 h
MDA-MB-435 = test system: MDA-MB-435
NCI/ADR-RES ovarian = test system: NCI/ADR-RES ovarian
HOP-62 NSCLC = test system: HOP-62 NSCLC
TK-10 renal = test system: TK-10 renal
786-0 renal = test system: 786-0 renal
U251 CNS = test system: U251 CNS
HT29 colon = test system: HT29 colon
SK-OV-3 ovarian = test system: SK-OV-3 ovarian
SF-295 CNS = test system: SF-295 CNS
SN12C renal = test system: SN12C renal

SMILES | GI50 (MDA-MB-435) [µM] | TGI (MDA-MB-435) [µM] | GI50 (NCI/ADR-RES ovarian) [µM] | TGI (NCI/ADR-RES ovarian) [µM] | GI50 (HOP-62 NSCLC) [µM] | TGI (HOP-62 NSCLC) [µM] | GI50 (TK-10 renal) [µM] | TGI (TK-10 renal) [µM] | GI50 (786-0 renal) [µM] | TGI (786-0 renal) [µM] | GI50 (U251 CNS) [µM] | TGI (U251 CNS) [µM] | GI50 (HT29 colon) [µM] | TGI (HT29 colon) [µM] | GI50 (SK-OV-3 ovarian) [µM] | TGI (SK-OV-3 ovarian) [µM] | GI50 (SF-295 CNS) [µM] | TGI (SF-295 CNS) [µM] | GI50 (SN12C renal) [µM] | TGI (SN12C renal) [µM]
O=C(Nc1cccc(C(F)(F)F)c1)Oc1ccc(Cl)c2cccnc12 | 1.89 | 9.5 | 1.23 | 16.8 | 2.99 | 11 | 4.1 | 21.4 | 5.09 | 15.4 | 0.861 | 8.57 | 3.9 | 14.1 | 6.64 | 29.3 | 0.976 | 6.93 | 1.85 | 7.89
C[C@]12C[C@H](O)[C@H]3[C@@H](CCC4=CC(=O)CC[C@@]43C)[C@@H]1CC[C@@H]2c1csc(-c2ccccc2)n1 | – | > 100 | – | > 100 | – | > 51.3 | – | > 100 | – | > 100 | – | > 71.4 | – | > 100 | – | > 100 | – | > 100 | – | > 100
O=c1/c(=N\Nc2ccccc2)c2cccc3ccc4cccc1c4c32 | – | > 100 | – | > 100 | – | > 100 | – | > 100 | – | > 100 | – | > 100 | – | > 100 | – | > 100 | – | > 100 | – | > 100
Nc1ccc(/C=C/c2ccc3cccnc3c2)cc1 | – | > 100 | – | > 100 | – | > 100 | – | > 100 | – | > 100 | – | > 100 | – | > 100 | – | > 100 | – | > 100 | – | > 100
C[C@@H]1CC[C@@]2(NC1)O[C@H]1C[C@H]3[C@@H]4CC[C@H]5C[C@@H](O)CC[C@]5(C)[C@H]4CC[C@]3(C)[C@H]1[C@@H]2C | – | > 100 | – | > 100 | – | > 100 | – | > 100 | – | > 100 | – | > 100 | – | > 100 | – | > 100 | – | > 100 | – | > 100
C=C(C)[C@@H]1CC[C@]2(C(=O)NS(=O)(=O)c3ccccc3)CC[C@]3(C)[C@H](CC[C@@H]4[C@@]5(C)CC[C@H](OC(=O)NS(=O)(=O)c6ccccc6)C(C)(C)[C@@H]5CC[C@]43C)[C@@H]12 | 1.77 | 4.89 | 3.87 | 24 | 2.33 | 6.83 | 2.43 | 10.3 | 2.42 | 6.93 | 1.46 | 5.96 | 2.03 | 11 | 2.6 | 8.22 | 0.281 | 2.23 | 2.34 | 15.7
CC1(C)CCC[C@]2(C)c3ccccc3C(=O)CC12 (some centres undefined) | 22.9 | > 100 | 20.3 | 91.1 | > 100 | > 100 | 69 | > 100 | 64.9 | > 100 | 42.3 | > 100 | 43 | > 100 | > 100 | > 100 | 40.7 | > 100 | 44.9 | > 100
CC[C@H](C)[C@H](NC(=O)c1cccn1C)C(=O)N(C)[C@H](C[C@@H](OC(C)=O)c1nc(C(=O)N[C@@H](Cc2ccccc2)C[C@H](C)C(=O)OC)cs1)C(C)C | 0.0348 | 0.168 | 1.2 | > 33.3 | 0.32 | > 33.3 | 2.61 | > 33.3 | 0.172 | > 15.8 | 0.24 | > 33.3 | 0.205 | > 29.5 | 0.124 | > 33.3 | 0.0744 | – | 0.351 | > 33.3
COc1cc2nccc(Oc3ccc(NC(=O)c4cn(C(C)C)c(=O)n(-c5ccc(F)cc5)c4=O)cc3F)c2cc1OC | > 100 | > 100 | > 100 | > 100 | > 69.4 | > 100 | > 70.7 | > 100 | > 100 | > 100 | > 100 | > 100 | 6.25 | > 100 | > 100 | > 100 | 0.435 | > 100 | 2.81 | > 100
COc1cc(NCCCCCN=C(N)NC(N)=NC(C)C)c2ncccc2c1 | 3.61 | 14.7 | > 100 | > 100 | 5.14 | 19.1 | 6.14 | 19.9 | 12.2 | 26.6 | 1.69 | 11.8 | 4.44 | > 42.3 | 10.9 | 23.5 | 13 | 29.2 | 2.32 | 14.8
COc1c(N2CCN(CN3C(=O)C(=Nc4ccc(S(=O)(=O)Nc5ncccn5)cc4)c4cc(Cl)ccc43)C(C)C2)c(F)cc2c(=O)c(C(=O)O)cn(C3CC3)c12 (centres undefined) | 10.3 | 21.1 | 12.3 | 38.1 | 18.2 | > 50 | 13.3 | 35.2 | 19.2 | > 50 | 34.8 | > 50 | 7.76 | > 50 | 40 | > 50 | 24.5 | > 50 | 10.6 | 27.5
CCCCn1c(=O)c(/C=C/C(=O)/C=C/c2cc3ccccc3n(CCCC)c2=O)cc2ccccc21 | 0.206 | 0.478 | 3.01 | 13.5 | 2.27 | 4.08 | 1.78 | 3.21 | 1.35 | 3.08 | 1.03 | 2.24 | 0.316 | 0.922 | 3.59 | 9.35 | 1.84 | 4.24 | 2.21 | 5.2
COc1ccc2[nH]c(C(=O)OCc3ccc4c(Cl)cc(Cl)c(O)c4n3)cc2c1 | 1.13 | 2.45 | 2.08 | 8.16 | 1.33 | 2.8 | 1.68 | 3.05 | 1.3 | 2.6 | 1.55 | 2.94 | 0.778 | 2.32 | 4.06 | 17.7 | 5.12 | 18 | 1.24 | 2.51
CCn1c2ccccc2c2cc(C(=O)c3ccc(C)c4ccccc34)ccc21 | 0.161 | 0.378 | 0.312 | > 100 | 0.476 | > 100 | 0.658 | > 100 | 0.426 | > 100 | 0.278 | 1.52 | 0.263 | 0.729 | 0.553 | > 100 | 0.273 | 0.936 | 2.44 | > 100
CNC(=O)c1cncc(/C=C/c2ccccc2Cl)c1 | > 25 | > 25 | > 25 | > 25 | > 25 | > 25 | > 25 | > 25 | > 25 | > 25 | > 25 | > 25 | > 25 | > 25 | > 25 | > 25 | > 25 | > 25 | > 25 | > 25
